Data on two molecules can be found in patent US20030018008A1, “Formulations of adenosine a1 agonists” (priority 1999, published 2003).

Molecules are shown by their SMILES.

The subject of the assay is carrageenan-induced oedema and allodynia. Kind of assay: Carrageenan model: weight bearing (allodynia) and paw oedema of the inflamed hind paw. Format: in vivo, rat. As to conditions: for % Weight on inflammed paw (Allodynia): 3 h after intraplantar 2% carrageenan, 50% = no pain; for % Inhibition of carrageenan-induced allodynia / % Inhibition of carrageenan-induced oedema: compared to vehicle control; for % Inhibition of carrageenan-induced oedema: plethysmometer. As for the experimental part:
Carrageenan model for (2S, 3S, 4R, 5R)-2-(5 tert-butyl-[1,3,4]oxadiazol-2-yl)-5-[6-(4-chloro-2-fluoro-phenylamino)-purin-9-yl]-tetrahvdro-furan-3,4-diol (Adenosine A1 agonist) and alosetron.
Male Random Hooded rats (180-220 g) were used. The test compound or vehicle was administered 30 mins before the 2nd test compound or vehicle. The test compounds and vehicles used were: (i) Compound A in 1% DMSO, 66% Peg400, 33% distilled water and (ii) alosetron in saline. Both test compounds were administered via the oral route. After a further 30 mins 100 ul of 2% carrageenan was injected intraplantar into the left hind paw and the animals were then returned to their cages. Three hours later, behavioural testing of the carrageenan-induced decrease in weight on the inflamed left hind paw (% weight on the inflammed left hind paw) and associated oedema was assessed. Weight bearing was measured using the dual channel weight averager and paw oedema was assessed using a plethysmometer. The dual channel weight averager is commercially available and is described in the following abstract: Validation of the dual channel weight averager as an instrument for the measurement of inflammatory pain, N. M. Clayton et al., 1997 British Journal Pharmacol. 120, 219P.
Note: In the absense of pain, weight on the hind paws would be evenly distributed, i.e. 50% on each hind paw.
Note: Oedema is the presence of abnormally large amounts of fluid in the intercellular tissue spaces of the body and in the present example is used to provide a measure of inflammation (or anti-oedemic). Allodynia is a sensation of pain resulting from a non-injurious stimulus such as normal heat, cold or pressure on skin and in the present example the weight-bearing (allodynia) effect in used to provide a measure of analgesia.
(In general: The carrageenan paw model is a standard test of acute inflammation.)

Regarding `Cc1[nH]cnc1CN1CCc2c(c3ccccc3n2C)C1=O` [Alosetron, 2,3,4,5-tetrahydro-5-methyl-2-[(5-methyl-1H-imidazol-4-yl)methyl]-1H-pyrido[4,3-b]indol-1-one], under “Alosetron 0.3 mg/kg oral”, the “% Weight on inflammed paw (Allodynia)” value was found to be 33.6 ± 5.5%, the “% Inhibition of carrageenan-induced allodynia” value is 45.1 ± 18.4% and the “% Inhibition of carrageenan-induced oedema” value was 28.2 ± 6.3%.

For `CC(C)(C)c1nnc([C@H]2O[C@@H](n3cnc4c(Nc5ccc(Cl)cc5F)ncnc43)[C@H](O)[C@@H]2O)o1` [Compound A, (2S, 3S, 4R, 5R)-2-(5 tert-butyl-[1,3,4]oxadiazol-2-yl)-5-[6-(4-chloro-2-fluoro-phenylamino)-purin-9-yl]-tetrahydro-furan-3,4-diol], under “Compound A 0.4 mg/kg oral”, the “% Weight on inflammed paw (Allodynia)” value is given as 20.7 ± 4.3%, the “% Inhibition of carrageenan-induced allodynia” value worked out at 2.1 ± 14.3% and the “% Inhibition of carrageenan-induced oedema” value is listed as −3.1 ± 8.2%.
